Measurements taken from patent US6803232B1, “NPY-Y7 receptor gene” (The Garvan Institute of Medical Research, priority 1998, dated 2004).

System: human NPY-Y7 receptors
Experiment: Competitive displacement of [125I]PYY on membranes of COSm6 cells transiently expressing human NPY-Y7 receptors
Type: binding
Conditions: for rank of potency for the Y7 receptor: inhibition of [125I]PYY (50 pM) binding, COSm6 membranes, single experiment, triplicate points
Method: The results were obtained through competitive displacement of [^125I]PYY on membranes of COSm6 cells transiently expressing human NPY-Y7 receptors. Membranes were incubated with [^125I]PYY (50 pM) and increasing concentrations of peptide competitors. Data are representative of a single experiment with each point measured in triplicate.
These experiments were conducted using COS-6 or HEX (293) cells transiently expressing recombinant Y7 receptor protein.
pcDNA3.1-hy7 cDNA was transiently transfected into the COSm6 cell line using FUGENE and […] of DNA/106 cells. The COSm6 cells were grown in Dulbecco's modified Eagles medium supplemented with 2 mM glutamine and 10% fetal calf serum, in 5% CO2 at 37° C. Membranes were harvested with COSm6 cells 72hr post-transfection. Adherent cells were washed twice in ice-cold phosphate buffered saline and lysed using a glass homogeniser in ice-cold hypotonic buffer (50 mM Tris-HCl, pH 7.4, 0.1% bacitracin). Membranes were pelleted by high speed centrifugation (30,000×g, 15 min 4° C.), homogeniser again in ice-cold hypotonic buffer and collected again by high speed centrifugation (30,000×g, 15 min, 4° C.). […] Samples were incubated at room temperature for 2hr. Incubations were terminated by centrifugation (4 min) and pellets collected. Radioactivity was measured for 1 min in a g counter.

Row | Substance | rank of potency for the Y7 receptor | affinity of the protein encoded by the hy7 cDNA (radio-ligand binding) (COS-6 or HEX (293) cells transiently expressing recombinant Y7 receptor protein, FIG. 2)
1 | (Leu31, Pro34)NPY: NPY-related peptide competitor, NPY analogue with Leu31 and Pro34 | PYY>NPY>[2-36]PYY>[3-36]NPY>[13-36]NPY>>(Leu31, Pro34)NPY>PP | –
2 | Neuropeptide Y [NPY] | PYY>NPY>[2-36]PYY>[3-36]NPY>[13-36]NPY>>(Leu31, Pro34)NPY>PP | –
3 | PYY: peptide YY, 36 amino acids, member of the pancreatic polypeptide family | PYY>NPY>[2-36]PYY>[3-36]NPY>[13-36]NPY>>(Leu31, Pro34)NPY>PP | highest affinity
4 | [2-36]PYY: NPY-related peptide competitor, PYY fragment 2-36 | PYY>NPY>[2-36]PYY>[3-36]NPY>[13-36]NPY>>(Leu31, Pro34)NPY>PP | –
5 | [3-36]NPY: NPY-related peptide competitor, NPY fragment 3-36 | PYY>NPY>[2-36]PYY>[3-36]NPY>[13-36]NPY>>(Leu31, Pro34)NPY>PP | –
6 | [13-36]NPY: NPY-related peptide competitor, NPY fragment 13-36 | PYY>NPY>[2-36]PYY>[3-36]NPY>[13-36]NPY>>(Leu31, Pro34)NPY>PP | –
